The target in data set [1] is central cholinergic receptors. The experiment in a line: 3H-oxotremorine M binding (displacement from rat brain homogenates). The conditions noted are these: rat brain homogenate, 40 min at 30° C., pH 7.4, read-out: 3H-Oxo-M IC50. The procedure:
The new compounds have high affinity to central cholinergic receptors, as measured by the ability of the compounds to displace tritiated oxotremorine-M from rat brain homogenates. The compounds have also high affinity to central muscarinic M-1 receptors, as defined by their ability to displace tritiated pirenzepine from rat brain homogenates. […]
^3 H-oxotremorine M binding was performed essentially as described by Birdsdall et al., 1980. Briefly, rat brains were homogenized in 100 vol (w/v) 10 mM Na,K-phosphate buffer (pH 7.4) and aliquots incubated with ^3 H-oxotremorine M (84.9 Ci/mmol, NEN) alone or in the presence of test compound in a total volume of 1.5 ml for 40 min. at 30° C. The reaction was stopped by adding 5 ml ice-cold buffer and filtered through Whatman GF/B filters soaked previously in 0.1% polyethylenimin (Sigma) for minimum 30 min. The filters were washed once with the same volume of buffer, transferred to scintillation vials and extracted in scintillation fluid (Pico-fluor 15, Packard) for at least two hours before counted in a liquid scintillation spectrometer (Beckman LS 1800). Non-specific binding was estimated at 10 μM atropine and all estimations made in triplicate. At least two displacement curves were made for each compound tested.

Data set [2] deals with T1, central muscarinic M-1 receptors (Rattus norvegicus, UniProt P08482).
T1 sequence (P08482 1-460): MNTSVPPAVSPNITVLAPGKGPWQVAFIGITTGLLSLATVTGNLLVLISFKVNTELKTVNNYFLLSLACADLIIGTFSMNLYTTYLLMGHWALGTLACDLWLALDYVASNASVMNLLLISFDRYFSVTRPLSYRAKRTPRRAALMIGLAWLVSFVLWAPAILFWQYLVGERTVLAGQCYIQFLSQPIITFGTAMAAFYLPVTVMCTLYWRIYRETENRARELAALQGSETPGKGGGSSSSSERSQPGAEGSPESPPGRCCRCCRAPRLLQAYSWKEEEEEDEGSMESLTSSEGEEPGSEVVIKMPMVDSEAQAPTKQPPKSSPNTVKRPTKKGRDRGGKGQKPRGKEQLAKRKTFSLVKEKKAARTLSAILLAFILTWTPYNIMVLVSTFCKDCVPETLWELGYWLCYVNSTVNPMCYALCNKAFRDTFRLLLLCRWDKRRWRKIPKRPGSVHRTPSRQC
The experiment in a line: biochemical. Type of data set: binding. Particulars: rat brain homogenate, 1.0 nM 3H-pirenzepine, 60 min at 25° C. The procedure: ^3 H-pirenzepine binding was performed essentially as described by Watson et al., 1983, the conditions being very much the same as for ^3 H-oxotremorine binding, except that aliquots were incubated with 1.0 nM ^3 H-pirenzepine for 60 min. at 25° C. and that the reaction was stopped by direct filtration followed by 3 washes with 4 ml buffer.

For data set [3] the following is noted: cited from earlier work.
The conditions of data set [4]: after peripheral administration; cited from earlier work.
For data set [5] the following is noted: after peripheral administration; cited from earlier work. The source holds these as a separate data set.

Structures can show the parent of a compound that is named as a salt. Where two headings read alike, the source gives them in different places.

As usually defined, the IC50 is the concentration that gives 50% inhibition. Take `C#CCOc1noc2c1CNCC2C` (single isomer, unassigned; (+)) [(+)-O-propargyl-7-Me-THPO, (+)7-methyl-3-(2-propynyloxy)-4,5,6,7-tetrahydroisoxazolo[4,5c]pyridine, reference compound]: the values for the half-inhibitory concentration (IC50) in data set [1] and in data set [2] were 18 nM and 61 nM, respectively.

Turning to `C#CCOc1nsc2c1CNCC2C` (single isomer, unassigned; (+)) [Compound 20, (+)-7-Methyl-3-(2-propynyloxy)-4,5,6,7-tetrahydroisothiazolo[4,5-c]pyridine, fumarate], the half-maximal inhibitory concentration (IC50) in data set [1] (fumarate) was 1.6 nM; in data set [2] it was 5.5 nM.

Take `C#CCOc1nsc2c1CN(C)CC2C` (single isomer, unassigned; (+)) [Compound 23, (+)-5,7-Dimethyl-3-(2-propynyloxy)-4,5,6,7-tetrahydroisothiazolo[4,5-c]pyridine, oxalate]: the results for the concentration for half-maximal inhibition (IC50) in data set [1] (oxalate) and in data set [2] were 18 nM and 14 nM, respectively.

For the compound `C#CCOc1nsc2c1CNCC2C` (single isomer, unassigned; (-)) [Compound 21, (-)-7-Methyl-3-(2-propynyloxy)-4,5,6,7-tetrahydroisothiazolo[4,5-c]pyridine, fumarate], the IC50 in data set [1] (fumarate) worked out at 0.93 nM; in data set [2] it was 8.1 nM.

For `C#CCOc1nsc2c1CN(C)CC2C` (single isomer, unassigned; (-)) [Compound 24, (-)-5,7-Dimethyl-3-(2-propynyloxy)-4,5,6,7-tetrahydroisothiazolo[4,5-c]pyridine, oxalate], the 50% inhibitory concentration (IC50) in data set [1] (oxalate) turned out to be 3.8 nM; in data set [2], 4.3 nM.

Turning to `COC(=O)C1=CCCN(C)C1` [Arecoline, methyl 1-methyl-1,2,5,6-tetrahydropyridine-3-carboxylate], in data set [3], the “hydrolysis of the ester group in vivo” value is “very rapidly hydrolyzed in vivo”. In addition, the half-inhibitory concentration (IC50) in data set [1] came to 1.9 nM. The central effects result in data set [4] was “very weak and frequently negligible central effects”. Further, the “penetration of the BBB” value in data set [5] was “capable of penetrating the BBB after peripheral administration”.

Take `COc1nsc2c1CNCC2` [Compound 3, 3-Methoxy-4,5,6,7-tetrahydroisothiazole[4,5-c]pyridine Hydrochloride]: the IC50 was determined as 18 nM in data set [1] and 1700 nM in data set [2].

Regarding `CCOc1nsc2c1CNCC2` [Compound 5, 3-Ethoxy-4,5,6,7-tetrahydroisothiazolo[4,5-c]pyridine, maleate], the concentration for half-maximal inhibition (IC50) was determined as 29 nM in data set [1] and 370 nM in data set [2].

`C#CCOc1nsc2c1CNCC2` [Compound 8, 3-(2-Propynyloxy)-4,5,6,7-tetrahydroisothiazole[4,5-c]pyridine, hemifumarate]: the IC50 is 6.3 nM in data set [1] and 53 nM in data set [2].

For the compound `COc1nsc2c1CNCC2C` (stereo not shown) [Compound 18, 3-Methoxy-7-methyl-4,5,6,7-tetrahydroisothiazolo[4,5-c]pyridine, fumarate], the 50% inhibitory concentration (IC50) turned out to be 24 nM in data set [1] and 130 nM in data set [2].

For the compound `C#CCOc1nsc2c1CNCC2C` (stereo not shown) [Compound 19, 7-Methyl-3-(2-propynyloxy)-4,5,6,7-tetrahydroisothiazolo[4,5-c]pyridine, fumarate], the values for the concentration for half-maximal inhibition (IC50) in data set [1] and in data set [2] were 1.8 nM and 6.9 nM, respectively.

Take `C#CCOc1nsc2c1CN(C)CC2C` (stereo not drawn) [Compound 22, (-+)-5,7-Dimethyl-3-(2-propynyloxy)-4,5,6,7-tetrahydroisothiazolo[4,5-c]pyridine, oxalate]: the IC50 in data set [1] was 5.3 nM; in data set [2], 6.7 nM.

On to `C=CCOc1nsc2c1CNCC2C` (stereo not drawn) [Compound 25, (-+)-7-Methyl-3-(2-propenyloxy)-4,5,6,7-tetrahydroisothiazolo[4,5-c]pyridine, fumarate], for which the IC50 was 5.3 nM in data set [1] and 11 nM in data set [2].

The values are drawn from patent US4923880A, “4,5,6,7-Tetrahydroisothiazolo (4,5-c) pyridine derivatives” (H. Lundbeck A/S, priority 1988, dated 1990).
